According to US12453709B2, “Compositions and methods for treating autism” (priority 2013, dated 2025):

System: symptoms of leaky gut
Assay: Preliminary testing: effect on symptoms of leaky gut
Assay type: in vivo
Excerpt: This may be due to the failure of the D amino acid isomer to be transported by the different L amino acid transport systems that exist within the body, or by completion for renal excretion that allows the L isomer to persist for a longer duration.

Structure (SMILES): C[C@](N)(Cc1ccc(O)cc1)C(=O)O (single isomer, unassigned) [Demser, α-methyl-L-tyrosine]
- duration of effect on leaky gut symptoms: short lived
- effect on the symptoms of leaky gut: beneficial effect
